In data set [1] the target is T1, 5-HT4 receptor (Cavia porcellus, UniProt O70528).
T1 construct: the mixture was suspended to give receptor membrane preparations; from tissue; host or cells: guinea pig (Slc-Hartley) brain striatum membranes
The experiment in a line: Serotonin 4 (5-HT4) receptor binding assay. The note with it: inhibition of specific binding of 0.1 nM [3H]-GR113808; guinea pig striatum membrane preparations; 37° C., 30 minutes; read-out: IC50. Details: species or system guinea pig. How it is done: 5-HT4 receptor binding assay and preparations of receptor membrane preparations were carried out according to a method of Grossman et al. [see British J. Pharmacol., (1993) 109, 618].
Slc-Hartley guinea pigs (body weight 300 to 400 g) were decapitated to remove brain rapidly, and striatum was isolated. To the obtained tissues were added fifteenfold of Hepes buffer (50 mM, pH7.4, 4° C.), and the mixture was homogenized by Teflon® homogenizer and centrifuged at 48,000×g (4° C.) for 15 minutes. To the resulting precipitate was added Hepes buffer (1 ml) to 30 mg by wet weight of tissues, and the mixture was suspended to give receptor membrane preparations.
0.1 nM [^3H]-GR113808 {chemical name: [1-[2-(methylsulfonylamino)ethyl]-4-piperidinyl]methyl 1-methylindole-3-carboxylate}, receptor membrane preparations, and Hepes buffer (50 mM, pH7.4, 4° C., 1 ml) containing test compounds or 30 μM serotonin were placed in an assay tube, and incubated at 37° C. for 30 minutes. On quenching the reaction, the mixture was rapidly filtered on whatman GF/B filter, which was presoaked in 0.1% polyethyleneimine for 1 hour, by using Brandel cell Harvester, and washed with ice-cooled 50 mM Tris-HCl (pH7.7, 4 ml) three times. To the filter after filtration was added ACS II scintillator, and then a radioactivity was determined by a liquid scintillation counter.
50% inhibition concentrations (IC50) were determined from inhibition rates of test compounds to specific bindings which were obtained by subtracting nonspecific bindings from total binding amounts of [^3H]-GR113808.

The test system of data set [2] is Male Slc-ddy mice. The experiment in a line: Mouse defecation assay. In kind it is in vivo. Details: key: −: No Effect; +: Moderately Improved (p<0.05); ++: Significantly Improved (p<0.01). The note with it: 3 mg/kg orally; stool weight 30, 60 and 120 minutes after administration; Dunnett assay vs control. How it is done: Male Slc-ddy mice (body weight 25 to 30 g) were used and allowed to ingest food and water ad libitum until commencement of experiments.
A group of 25 mice was divided into 5 groups, which 5 mice each per group were respectively transferred to fasting cages to adjust to new environments for about 1 hour. Then, each mouse was orally administered 3 mg/kg suspension of a test compound in 0.5% tragacanth solution to measure each stool weight of each group 30, 60, and 120 minutes after oral administration.
Efficacies were evaluated by Dunnett assay between test compounds and control.

In data set [3] the test system is Male Slc-Hartley guinea pigs. The experiment in a line: Electrocardiographic assay for guinea pig. Particulars: dose extending 5% of QTc; i.v. infusion for 15 minutes, anesthetized guinea pigs, ECG lead II.
Experimental: (§1) Male Slc-Hartley guinea pigs were anesthetized to determine electrocardiogram (lead II) under artificial respiration. A drug solution was continuously and intravenously infused via cannula indwelled in cervical veins at a flow rate: 0.2 ml/kg/min for 15 minutes.
The test system of data set [4] is Male Slc-Hartley guinea pigs. Particulars: guinea pig, in vivo, iv.
Experimental: as §1

Counter-ions that a name gives are not always drawn. Like-named read-outs stand apart in the source and are kept apart here.

T1 sequence (O70528 whole entry): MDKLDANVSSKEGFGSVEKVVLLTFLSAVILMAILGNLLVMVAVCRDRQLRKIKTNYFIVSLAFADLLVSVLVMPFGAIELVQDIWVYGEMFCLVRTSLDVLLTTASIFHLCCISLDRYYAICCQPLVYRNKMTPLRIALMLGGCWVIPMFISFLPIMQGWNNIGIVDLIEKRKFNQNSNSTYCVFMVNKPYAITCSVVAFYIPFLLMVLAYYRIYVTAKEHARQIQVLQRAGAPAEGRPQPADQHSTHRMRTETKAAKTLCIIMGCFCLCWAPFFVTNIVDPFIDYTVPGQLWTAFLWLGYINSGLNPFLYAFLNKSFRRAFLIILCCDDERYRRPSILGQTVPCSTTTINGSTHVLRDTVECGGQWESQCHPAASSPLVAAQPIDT

Take `CCOc1cc(N)c(Cl)cc1C(=O)NCC1CN(CC2CCN(C(=O)OC(C)(C)C)CC2)CCO1` (stereo not shown) (as salt: fumarate) [Example 4, 4-amino-N-[{4-[(1-(tert-butoxycarbonyl)-4-piperidinyl)methyl]-2-morpholinyl}-methyl]-5-chloro-2-ethoxybenzamide 1.5 fumarate]: the melting point was in the range of 167 to 169 °C. Turning to `CCOc1cc(N)c(Cl)cc1C(=O)NC[C@H]1CN(CC2CCN(C(=O)N(C)C)CC2)CCO1` [Example 72], the melting point was in the range of 157 to 158 °C. Further, the concentration for half-maximal inhibition (IC50) in data set [1] came out at 9.04 nM. The Effect entry in data set [2] is listed as “++”. Also, in data set [3], the “ED5% (mg/kg,i.v.)” value is given as >30 mg/kg. `COc1cc(N)c(Cl)cc1C(=O)NC[C@H]1CN(CC2CCN(C(=O)CO)CC2)CCO1` (as salt: hydrobromid) (hydrate or solvate) [Example 220, (S)-4-amino-5-chloro-N-[{4-[(1-hydroxyacetyl-4-piperidinyl)methyl]-2-morpholinyl}methyl]-2-methoxybenzamide hydrobromide 2 hydrate]: the melting point is 215 to 216 °C (dec.).

On to `CCOc1cc(N)c(Cl)cc1C(=O)NC[C@H]1CN(CC2CCN(C(=O)N3CCC3)CC2)CCO1` [Example 208, (S)-4-amino-N-[{4-[(1-(1-azetidinecarbonyl)-4-piperidinyl)methyl]-2-morpholinyl}methyl]-5-chloro-2-ethoxybenzamide], for which the melting point was in the range of 166 to 168 °C. Further, in data set [1], the 50% inhibitory concentration (IC50) was found to be 4.79 nM. The matching figures for `CCOc1cc(N)c(Cl)cc1C(=O)NCC1CN(CC2CCN(C(=O)OC)CC2)CCO1` (stereo not shown) [Example 93]: 175 °C and 9.36 nM.

On to `COc1cc(N)c(Cl)cc1C(=O)NC[C@H]1CN(CC2CCN(C(=O)CO)CC2)CCO1` (as salt: hydrochloride) [Example 198, 4-amino-5-chloro-N-[{4-[(1-hydroxyacetyl-4-piperidinyl)methyl]-2-morpholinyl}methyl]-2-methoxybenzamide hydrochloride], for which the melting point was 164 to 167 °C (dec.). As for `CCOc1cc(N)c(Cl)cc1C(=O)NC[C@H]1CN(CC2CCN(C(=O)CO)CC2)CCO1` [Example 197], the Effect entry in data set [2] is reported as “++”. The “ED5% (mg/kg,i.v.)” value in data set [4] is >30 mg/kg. As to `CCOc1cc(N)c(Cl)cc1C(=O)NC[C@H]1CN(CC2CCN(C(=O)N(C)OC)CC2)CCO1` [Example 205, (S)-4-amino-5-chloro-2-ethoxy-N-[{4-[(1-(N-methoxy-N-methylcarbamoyl)-4-piperidinyl)methyl]-2-morpholinyl}methyl]benzamide], the melting point lay within 127 to 129 °C.

In turn, `CCOc1cc(N)c(Br)cc1C(=O)NCC1CN(CC2CCN(C(=O)OC(C)(C)C)CC2)CCO1` (stereo not shown) (as salt: fumarate) [Example 11, 4-amino-5-bromo-N-[{4-[(1-(tert-butoxycarbonyl)-4-piperidinyl)methyl]-2-morpholinyl}methyl]-2-ethoxybenzamide 1.5 fumarate] gave a melting point of 171 to 172 °C.

In turn, `CCOc1cc(N)c(Cl)cc1C(=O)NCC1CN(CC2CCN(C(N)=O)CC2)CCO1` (stereo not shown) [Example 43, 4-amino-N-[{4-((1-carbamoyl-4-piperidinyl)methyl)-2-morpholinyl}methyl]-5-chloro-2-ethoxybenzamide] had a melting point of 201 to 207 °C.

For the origin of these results see US7906510B2, “Amide derivative and pharmaceutical composition containing the same” (Dainippon Sumito Pharma Co., Ltd., priority 2008, dated 2011).
